Laboratory results as given in PMC5422493, “Important amino acid residues of hexachlorocyclohexane dehydrochlorinases (LinA) for enantioselective transformation of hexachlorocyclohexane isomers” (Biodegradation, 2017).
Substitutions are numbered along the chain they refer to.

Columns and labels:
[1] = target: T1, LinA-type2 (uncultured organism, UniProt B5ANU3); assay: product formation by chiral GC-ECD; format: biochemical; details: 50 mM Tris-HCl pH 8.0, 10% glycerol, 30 °C
T1 construct: natural variant differing from LinA-type1 at ten positions (incl. Q20, C96, G131, M133); pET-26b(+) NdeI/XhoI (C-terminal His tag), E. coli BL21(DE3), Ni-NTA purified
T1 sequence (B5ANU3 1-156): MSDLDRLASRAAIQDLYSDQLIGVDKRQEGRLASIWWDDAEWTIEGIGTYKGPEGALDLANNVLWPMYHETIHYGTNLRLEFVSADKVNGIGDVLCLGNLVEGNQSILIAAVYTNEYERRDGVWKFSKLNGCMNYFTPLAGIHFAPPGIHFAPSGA

[2] = target: T2, LinA-type1 (Sphingobium indicum, UniProt P51697); assay: product formation by chiral GC-ECD; format: biochemical; details: 50 mM Tris-HCl pH 8.0, 10% glycerol, 30 °C
T2 construct: full length 156 residues, pET-26b(+) NdeI/XhoI (C-terminal His tag), E. coli BL21(DE3), Ni-NTA purified
T2 sequence (P51697 1-156): T1 sequence (B5ANU3 1-156) with Q20K, G23A, Y68F, T71C, C96L, Y113F, N115D, L129R, G131A, M133T

## Cl[C@H]1[C@H](Cl)[C@@H](Cl)[C@@H](Cl)[C@H](Cl)[C@H]1Cl [γ-HCH]
[1]
  product formation by chiral GC-ECD: incubations with LinA-type2 led to the formation of a mixture
[2]
  product formation by chiral GC-ECD: incubations of LinA-type1 with γ-HCH led to the formation of only γ-PCCH-2
